Measured values from patent US20200392116A1, “SUBSTITUTED HETEROCYCLES AS c-MYC TARGETING AGENTS” (NORTHWESTERN UNIVERSITY, priority 2019, published 2020).
Read-outs that look alike come from different tables or passages of the source.

Experiments:
[1] = tested on: MYC transcriptional activity (c-Myc E-box-luciferase reporter, MycCap cells); test: MYC E-box luciferase reporter assay; assay type: cell-based; conditions: Mus musculus, Myc-CaP
Protocol: To test the compounds, we evaluated the in silico hits in a MYC E-Box luciferase reporter assay to measure the effects of these compounds (referred to as Min-1 to Min-32) on MYC transcriptional activity. […] (See FIG. 2).
MycCap cells stably expressing luciferase with CMV promoter (MycCap-luc) or c-Myc E-box-luciferase reporter (MycCap Ebox-luc) were plated at 10000 cells per well in 96 well white-wall plate. Serial dilutions of 361 were treated next day. At 4 hours of treatment, luminescence signal was determined immediately after adding 150 μg/ml of Luciferin to the well. (See FIG. 12).

[2] = tested on: CMV reporter; test: CMV reporter assay (control reporter beside the Ebox reporter); assay type: cell-based
[3] = class symbols, read-out: Ebox reporter: IC50
[4] = class symbols, read-out: Eboc reporter IC50
[5] = given as numeric bound, read-out: Ebox reporter: IC50

| Structure (SMILES) | IC50 [1, 3] | IC50 [2] | IC50 [1, 4] | IC50 ([2]; class symbols) | IC50 [1, 5] |
| --- | --- | --- | --- | --- | --- |
| Cn1nc(C(F)(F)F)cc1-c1cnc(OCc2ccc(Cl)cc2)c(-c2ccc(Cl)c(C(F)(F)F)c2)c1O [NUCC-0202686] | < 5 µM | 31 µM | – | – | – |
| Cn1nc(C(F)(F)F)cc1-c1ccc(N(Cc2ccc(Cl)cc2)C(=O)c2cccc(Cl)c2)cc1O [NUCC-0202704] | < 5 µM | > 50 µM | – | – | – |
| Oc1cc(-c2ccc(OCc3ccc(Cl)cc3)c(-c3ccc(Cl)c(C(F)(F)F)c3)c2O)[nH]n1 [NUCC-0202535] | 10 to 50 µM | > 50 µM | – | – | – |
| Cn1nc(-c2c(Cl)cc(OCc3ccc(Cl)cc3)c(-c3ccc(Cl)c(C(F)(F)F)c3)c2O)cc1C(F)(F)F [NUCC-0202988] | – | – | > 50 µM | > 50 µM | – |
| Cn1nc(-c2ccc(N(Cc3ccc(Cl)cc3)C(=O)c3ccc(C(F)(F)F)cc3)cc2O)cc1C(F)(F)F [NUCC-0202714] | – | > 50 µM | – | – | > 50 µM |
| Cn1nc(-c2ccc(N(Cc3ccc(Cl)cc3)C(=O)c3ccc(F)cc3)cc2O)cc1C(F)(F)F [NUCC-0202701] | – | > 50 µM | – | – | > 50 µM |
| Cn1nc(C(F)(F)F)cc1-c1ccc(OCc2ccc(Cl)cc2)c(-c2ccc(Cl)c(C(F)(F)F)c2)c1Cl [NUCC-0202650] | – | > 50 µM | – | – | > 50 µM |
| Cn1nc(-c2ccc(N(Cc3ccc(Cl)cc3)C(=O)c3ccccc3F)cc2O)cc1C(F)(F)F [NUCC-0202716] | – | > 50 µM | – | – | > 50 µM |
| Cn1nc(C(F)(F)F)cc1-c1ccc(N(Cc2ccc(Cl)cc2)C(=O)c2ccnc(C(F)(F)F)c2)cc1O [NUCC-0202700] | < 5 µM | > 50 µM | – | – | – |
| Cn1nc(C(F)(F)F)cc1-c1ccc(N(Cc2ccc(Cl)cc2)C(=O)c2cccc(S(C)(=O)=O)c2)cc1O [NUCC-0202705] | < 5 µM | > 50 µM | – | – | – |
| Cn1nc(C(F)(F)F)cc1-c1ccc(OCc2ccc(Cl)cc2)c(-c2ccc(Cl)c(C(F)(F)F)c2)n1 [NUCC-0202640] | – | > 50 µM | – | – | > 50 µM |
| Cn1nc(C(F)(F)F)cc1-c1ccc(N(Cc2ccc(Cl)cc2)C(=O)c2ccccc2C(F)(F)F)cc1O [NUCC-0202723] | 5 to 10 µM | > 50 µM | – | – | – |
| Cn1nc(-c2ccc(N(Cc3ccc(Cl)cc3)C(=O)c3ccnc(C(F)(F)F)c3)cc2O)cc1C(F)(F)F [NUCC-0202696] | – | > 50 µM | – | – | > 50 µM |
| Cn1nc(C(F)(F)F)cc1-c1ccc(N(Cc2ccc(Cl)cc2)C(=O)c2ccc(C(F)(F)F)cc2Cl)cc1O [NUCC-0202720] | 5 to 10 µM | > 50 µM | – | – | – |
| Oc1c(-c2cc(C(F)(F)F)n[nH]2)cc(F)c(OCc2ccc(Cl)cc2)c1-c1ccc(Cl)c(C(F)(F)F)c1 [NUCC-0202687] | < 5 µM | > 50 µM | – | – | – |
| CN(C)C(=O)c1cc(-c2ccc(OCc3ccc(Cl)cc3)c(-c3ccc(Cl)c(C(F)(F)F)c3)c2O)nn1C [NUCC-0202531] | – | > 50 µM | – | – | > 50 µM |
| COc1c(-c2ccc(OCc3ccc(Cl)cc3)cc2O)nn(C)c1C(F)(F)F [NUCC-0202652] | – | > 50 µM | – | – | > 50 µM |
| CN(C)C(=O)c1cc(-c2ccc(OCc3ccc(Cl)cc3)c(-c3ccc(Cl)c(C(F)(F)F)c3)c2O)[nH]n1 [NUCC-0202523] | – | > 50 µM | – | – | > 50 µM |
| Cn1nc(-c2ccc(N(Cc3ccc(Cl)cc3)C(=O)c3cccc(S(C)(=O)=O)c3)cc2O)cc1C(F)(F)F [NUCC-0202721] | – | > 50 µM | – | – | > 50 µM |

| Structure (SMILES) | IC50 [1, 3] | IC50 [2] | IC50 [1, 4] | IC50 ([2]; class symbols) | IC50 [1, 5] |
| --- | --- | --- | --- | --- | --- |
| C=C(C)c1cc(-c2ccc(OCc3ccc(Cl)cc3)c(-c3ccc(C)c(C)c3)c2C)nn1C [NUCC-0202528] | 10 to 50 µM | 28 µM | – | – | – |
| CN(C(=O)c1ccc(-c2cc(C(F)(F)F)nn2C)c(O)c1)c1ccc(Cl)c(C(F)(F)F)c1 [NUCC-0202990] | – | – | 10 to 50 µM | > 50 µM | – |
| Cn1nc(-c2ccc(CNc3ccc(Cl)c(C(F)(F)F)c3)cc2O)cc1C(F)(F)F [NUCC-0202981] | – | – | 10 to 50 µM | > 50 µM | – |
| CC(Oc1ccc(-c2cc(C(F)(F)F)nn2C)c(O)c1-c1ccc(Cl)c(C(F)(F)F)c1)c1ccc(Cl)cc1 (stereo not shown) [NUCC-0202418] | 5 to 10 µM | > 50 µM | – | – | – |
| Cn1nc(C(F)(F)F)cc1-c1ccc(CNc2ccc(Cl)cc2)c(-c2ccc(Cl)c(C(F)(F)F)c2)c1O [NUCC-0202414] | 5 to 10 µM | > 50 µM | – | – | – |
| COc1ccc(-c2cc(C(F)(F)F)n(C)n2)c(O)c1-c1ccc(Cl)c(C(F)(F)F)c1 [NUCC-0202430] | – | > 50 µM | – | – | > 50 µM |
| Cn1nc(-c2cc(Cl)c(OCc3ccc(Cl)cc3)c(-c3ccc(Cl)c(C(F)(F)F)c3)c2O)cc1C(F)(F)F [NUCC-0202642] | – | > 50 µM | – | – | > 50 µM |
| Cn1nc(-c2ccc(N(Cc3ccc(Cl)cc3)C(=O)c3ccc(C(F)(F)F)cc3Cl)cc2O)cc1C(F)(F)F [NUCC-0202708] | – | > 50 µM | – | – | > 50 µM |
| O=C(Nc1ccc(Cl)c(C(F)(F)F)c1)c1ccc(-c2cc(C(F)(F)F)n[nH]2)c(O)c1 [NUCC-0202992] | – | – | 5 to 10 µM | 10 to 50 µM | – |
| Cn1nc(-c2ccc(N(Cc3ccc(Cl)cc3)C(=O)c3cncc(F)c3)cc2O)cc1C(F)(F)F [NUCC-0202697] | – | > 50 µM | – | – | > 50 µM |
| Cn1nc(-c2ccc(OCc3ccc(Cl)cc3)c(Oc3ccc(F)cn3)c2O)cc1C(F)(F)F [NUCC-0202422] | – | > 50 µM | – | – | > 50 µM |
| Cn1nc(C(F)(F)F)cc1-c1c(Cl)cc(OCc2ccc(Cl)cc2)c(-c2ccc(Cl)c(C(F)(F)F)c2)c1O [NUCC-0202987] | – | – | < 5 µM | > 50 µM | – |
| Cn1nc(-c2ccc(N(Cc3ccc(Cl)cc3)C(=O)c3ccc(F)c(F)c3)cc2O)cc1C(F)(F)F [NUCC-0202707] | – | > 50 µM | – | – | > 50 µM |
| Cn1nc(C(F)(F)F)c(Oc2ccc(Cl)c(F)c2)c1-c1ccc(OCc2ccc(Cl)cc2)cc1O [NUCC-0202537] | 5 to 10 µM | 40 µM | – | – | – |
| Cc1cc(-c2ccc(OCc3ccc(Cl)cc3)c(-c3ccc(Cl)c(C(F)(F)F)c3)c2O)[nH]n1 [NUCC-0202532] | 10 to 50 µM | > 50 µM | – | – | – |
| Cn1nc(C(F)(F)F)cc1-c1ccc(N(Cc2ccc(Cl)cc2)C(=O)c2cncc(C#N)c2)cc1O [NUCC-0202724] | 5 to 10 µM | > 50 µM | – | – | – |
| Cn1nc(-c2ccc(N(Cc3ccc(Cl)cc3)C(=O)c3cccc(Cl)c3)cc2O)cc1C(F)(F)F [NUCC-0202699] | – | > 50 µM | – | – | > 50 µM |
| Cn1nc(-c2ccc(NC(=O)c3ccc(Cl)c(C(F)(F)F)c3)cc2O)cc1C(F)(F)F [NUCC-0202691] | – | > 50 µM | – | – | > 50 µM |
| Cn1nc(C(F)(F)F)c(Oc2ccc(F)c(Cl)c2)c1-c1ccc(OCc2ccc(Cl)cc2)cc1O [NUCC-0202637] | 5 to 10 µM | 43 µM | – | – | – |

| Structure (SMILES) | IC50 [1, 3] | IC50 [2] | IC50 [1, 4] | IC50 ([2]; class symbols) | IC50 [1, 5] |
| --- | --- | --- | --- | --- | --- |
| Cn1nc(C(N)=O)cc1-c1ccc(OCc2ccc(Cl)cc2)c(-c2ccc(Cl)c(C(F)(F)F)c2)c1O [NUCC-0202526] | 10 to 50 µM | > 50 µM | – | – | – |
| Cn1nc(C(F)(F)F)cc1-c1ccc(N(Cc2ccc(Cl)cc2)C(=O)c2ccc(F)c(F)c2)cc1O [NUCC-0202706] | < 5 µM | > 50 µM | – | – | – |
| Oc1cc(OCc2ccc(Cl)cc2)ccc1-c1[nH]nc(C(F)(F)F)c1Oc1ccc(Cl)c(F)c1 [NUCC-0202536] | 5 to 10 µM | 44 µM | – | – | – |
| O=c1cc(C(F)(F)F)oc2cc(NCc3ccc(Cl)cc3)ccc12 [NUCC-0202436] | 10 to 50 µM | > 50 µM | – | – | – |
| Cn1nc(C(F)(F)F)cc1-c1cc(Cl)c(OCc2ccc(Cl)cc2)c(-c2ccc(Cl)c(C(F)(F)F)c2)c1O [NUCC-0202648] | < 5 µM | > 50 µM | – | – | – |
| Oc1cc(CNc2ccc(Cl)c(C(F)(F)F)c2)ccc1-c1cc(C(F)(F)F)n[nH]1 [NUCC-0202993] | – | – | 5 to 10 µM | 10 to 50 µM | – |
| Cn1nc(C(F)(F)F)cc1-c1ccc(N(Cc2ccc(Cl)cc2)C(=O)c2ccc(C(F)(F)F)c(Cl)c2)cc1O [NUCC-0202423] | < 5 µM | > 50 µM | – | – | – |
| CN(C(=O)c1ccc(-c2cc(C(F)(F)F)n(C)n2)c(O)c1)c1ccc(Cl)c(C(F)(F)F)c1 [NUCC-0202991] | – | – | 10 to 50 µM | > 50 µM | – |
| Oc1c(-c2cc(C(F)(F)F)n[nH]2)c(Cl)cc(OCc2ccc(Cl)cc2)c1-c1ccc(Cl)c(C(F)(F)F)c1 [NUCC-0202986] | – | – | < 5 µM | 10 to 50 µM | – |
| Oc1c(-c2cc(C(F)(F)F)n[nH]2)cc(Cl)c(OCc2ccc(Cl)cc2)c1-c1ccc(Cl)c(C(F)(F)F)c1 [NUCC-0202649] | < 5 µM | > 50 µM | – | – | – |
| Oc1c(-c2cc(C(F)(F)F)n[nH]2)ccc(NCc2ccc(Cl)cc2)c1-c1ccc(Cl)c(C(F)(F)F)c1 [NUCC-0202433] | 5 to 10 µM | > 50 µM | – | – | – |
| COc1c(C(F)(F)F)n[nH]c1-c1ccc(OCc2ccc(Cl)cc2)cc1O [NUCC-0202639] | 5 to 10 µM | 32 µM | – | – | – |
| Oc1c(-c2cc(C(F)(F)F)n[nH]2)ccc(OCc2ccc(Cl)cc2)c1Oc1ccc(F)cn1 [NUCC-0202435] | 10 to 50 µM | > 50 µM | – | – | – |
| Cn1nc(C(F)(F)F)cc1-c1ccc(CNc2ccc(Cl)c(C(F)(F)F)c2)cc1O [NUCC-0202980] | – | – | 10 to 50 µM | 10 to 50 µM | – |
| NC(=O)c1cc(-c2ccc(OCc3ccc(Cl)cc3)c(-c3ccc(Cl)c(C(F)(F)F)c3)c2O)[nH]n1 [NUCC-0202521] | 10 to 50 µM | 34 µM | – | – | – |
| Cn1nc(-c2ccc(N(Cc3ccc(Cl)cc3)C(=O)c3ccccc3Cl)cc2O)cc1C(F)(F)F [NUCC-0202702] | – | > 50 µM | – | – | > 50 µM |
| Cn1nc(-c2ccc(OCc3ccc(Cl)cc3)c(-c3ccc(Cl)c(C(F)(F)F)c3)c2O)cc1O [NUCC-0202644] | 10 to 50 µM | > 50 µM | – | – | – |
| Cn1nc(-c2ccc(OCc3ccc(Cl)cc3)c(-c3ccc(Cl)c(C(F)(F)F)c3)c2O)cc1C(=O)O [NUCC-0202525] | 10 to 50 µM | > 50 µM | – | – | – |
